From patent US20210254056A1, “IDENTIFICATION AND TARGETED MODULATION OF GENE SIGNALING NETWORKS” (CAMP4 THERAPEUTICS CORPORATION, priority 2017, published 2021)

Tested on: hepatocytes
Assay: RNA-seq of hepatocytes treated with Phase III failure compounds
Settings: hepatocytes
Procedure: RNA-seq was performed to determine the effects of the compounds on hepatocytes.
Significance was determined by the criteria of FPKM≥0.5, a log 2(fold-change)≥1, and a […].

CCC(CC)[C@H](NC(C)=O)[C@@H]1[C@H](O)[C@@H](C(=O)O)C[C@H]1NC(=N)N.O.O.O [peramivir (trihydrate), peramivir]
RNA-seq results, GPD1 expression (gene GPD1): 0.37
RNA-seq results: GPD1 expression (gene GPD1): 0
RNA-seq results, GPHN expression (gene GPHN): −0.14
RNA-seq results: GPHN expression (gene GPHN): 0.06
RNA-seq results, GTPBP3 expression (gene GTPBP3): 0.32
RNA-seq results: GTPBP3 expression (gene GTPBP3): 0.07
RNA-seq results, GUSB expression (gene GUSB): −0.26
RNA-seq results: GUSB expression (gene GUSB): 0.23
RNA-seq results, GYG1 expression (gene GYG1): −0.32
RNA-seq results: GYG1 expression (gene GYG1): 0.02
RNA-seq results, GYS1 expression (gene GYS1): 0.05
RNA-seq results: GYS1 expression (gene GYS1): 0.12
RNA-seq results, GYS2 expression (gene GYS2): −0.03
RNA-seq results: GYS2 expression (gene GYS2): −0.13
RNA-seq results, H6PD expression (gene H6PD): 0.18
RNA-seq results: H6PD expression (gene H6PD): −0.01
RNA-seq results, H19 expression (gene H19): −0.21
RNA-seq results: H19 expression (gene H19): 0.34
RNA-seq results, HAL expression (gene HAL): −0.09
RNA-seq results: HAL expression (gene HAL): −0.17
RNA-seq results, HAX1 expression (gene HAX1): −0.12
RNA-seq results: HAX1 expression (gene HAX1): 0.15
RNA-seq results, HBA1 expression (gene HBA1): 1.07
RNA-seq results: HBA1 expression (gene HBA1): 0.04
RNA-seq results, HBB expression (gene HBB): 0.07
RNA-seq results: HBB expression (gene HBB): −0.54
RNA-seq results, HGD expression (gene HGD): −0.10
RNA-seq results: HGD expression (gene HGD): −0.18
RNA-seq results, HLA-B expression (gene HLA-B): 0.05
RNA-seq results: HLA-B expression (gene HLA-B): 0.18
RNA-seq results, HMBS expression (gene HMBS): −0.09
RNA-seq results: HMBS expression (gene HMBS): 0
RNA-seq results, HMGCR expression (gene HMGCR): −0.11
RNA-seq results: HMGCR expression (gene HMGCR): −0.29
RNA-seq results, HMGCS2 expression (gene HMGCS2): −0.21
RNA-seq results: HMGCS2 expression (gene HMGCS2): −0.28
RNA-seq results, HMOX1 expression (gene HMOX1): 0.22
RNA-seq results: HMOX1 expression (gene HMOX1): 1.28
RNA-seq results, HNF1A expression (gene HNF1A): 0.33
RNA-seq results: HNF1A expression (gene HNF1A): 0.11
RNA-seq results, HNF1B expression (gene HNF1B): −0.02
RNA-seq results: HNF1B expression (gene HNF1B): −0.15
RNA-seq results, HNF4A expression (gene HNF4A): 0.30
RNA-seq results: HNF4A expression (gene HNF4A): −0.01
RNA-seq results, HOGA1 expression (gene HOGA1): 0.80
RNA-seq results: HOGA1 expression (gene HOGA1): 0.01
RNA-seq results, HPD expression (gene HPD): 0.10
RNA-seq results: HPD expression (gene HPD): 0.06
RNA-seq results, HPGD expression (gene HPGD): −0.69
RNA-seq results: HPGD expression (gene HPGD): −0.7
RNA-seq results, HPS4 expression (gene HPS4): −0.04
RNA-seq results: HPS4 expression (gene HPS4): 0.26
RNA-seq results, HPS5 expression (gene HPS5): −0.12
RNA-seq results: HPS5 expression (gene HPS5): −0.18
RNA-seq results, HPS6 expression (gene HPS6): 0.31
RNA-seq results: HPS6 expression (gene HPS6): 0.23
RNA-seq results, HPX expression (gene HPX): −0.17
RNA-seq results: HPX expression (gene HPX): 0.2
RNA-seq results, HRAS expression (gene HRAS): −0.15
RNA-seq results: HRAS expression (gene HRAS): 0.31
RNA-seq results, HRSP12 expression (gene HRSP12): −0.47
RNA-seq results: HRSP12 expression (gene HRSP12): −0.3
RNA-seq results, HSD3B7 expression (gene HSD3B7): −0.05
RNA-seq results: HSD3B7 expression (gene HSD3B7): 0.26
RNA-seq results, HSD17B10 expression (gene HSD17B10): −0.09
RNA-seq results: HSD17B10 expression (gene HSD17B10): 0.15
RNA-seq results: HYLS1 expression (gene HYLS1): −0.60
RNA-seq results: ID1 expression (gene ID1): 0.13
RNA-seq results: IDH1 expression (gene IDH1): −0.29
RNA-seq results: IDH2 expression (gene IDH2): −0.11
RNA-seq results: IDUA expression (gene IDUA): 0.23
RNA-seq results: IFIH1 expression (gene IFIH1): −0.40
RNA-seq results: IFNAR2 expression (gene IFNAR2): −0.51
RNA-seq results: IFT27 expression (gene IFT27): −0.11
RNA-seq results: IFT80 expression (gene IFT80): 0.00
RNA-seq results: IFT122 expression (gene IFT122): −0.15
RNA-seq results: IFT140 expression (gene IFT140): 0.44
RNA-seq results: IFT172 expression (gene IFT172): 0.36
RNA-seq results: IGFALS expression (gene IGFALS): 0.33
RNA-seq results: IKBKG expression (gene IKBKG): 0.48
RNA-seq results: IL1RN expression (gene IL1RN): −0.20
RNA-seq results: IL2RG expression (gene IL2RG): −0.08
RNA-seq results: INSR expression (gene INSR): 0.01
RNA-seq results: INVS expression (gene INVS): −0.15
RNA-seq results: ISYNA1 expression (gene ISYNA1): 0.20
RNA-seq results: ITGB3 expression (gene ITGB3): 0.02
RNA-seq results: IYD expression (gene IYD): −0.15
RNA-seq results: JAG1 expression (gene JAG1): 0.14
RNA-seq results: JAK2 expression (gene JAK2): −0.26
RNA-seq results: KCTD7 expression (gene KCTD7): 0.26
RNA-seq results: KCTD11 expression (gene KCTD11): 0.53
RNA-seq results: KHK expression (gene KHK): 0.13
RNA-seq results: KIAA0586 expression (gene KIAA0586): −0.32
RNA-seq results: KMT2D expression (gene KMT2D): 0.57
RNA-seq results: KPTN expression (gene KPTN): 0.03
RNA-seq results: KRIT1 expression (gene KRIT1): −0.32
RNA-seq results: KRT18 expression (gene KRT18): 0.14
RNA-seq results: KYNU expression (gene KYNU): −0.28
RNA-seq results: LAMB2 expression (gene LAMB2): 0.14
RNA-seq results: LCAT expression (gene LCAT): 0.18
RNA-seq results: LDHB expression (gene LDHB): −0.23
RNA-seq results: LDLR expression (gene LDLR): 0.23
RNA-seq results: LDLRAP1 expression (gene LDLRAP1): 0.03
RNA-seq results: LIPC expression (gene LIPC): −0.23
RNA-seq results: LIPT1 expression (gene LIPT1): −0.63
RNA-seq results: LMNB2 expression (gene LMNB2): 0.36
RNA-seq results: LPA expression (gene LPA): 0.04
RNA-seq results: LPIN1 expression (gene LPIN1): −0.08
RNA-seq results: LPIN2 expression (gene LPIN2): 0.08
RNA-seq results: LRBA expression (gene LRBA): −0.14
RNA-seq results: LRP5 expression (gene LRP5): 0.14
RNA-seq results: LYRM4 expression (gene LYRM4): −0.40
RNA-seq results: LYST expression (gene LYST): −0.05
RNA-seq results: MAN1A1 expression (gene MAN1A1): −0.36
RNA-seq results: MAN2B1 expression (gene MAN2B1): 0.14
RNA-seq results: MAOB expression (gene MAOB): −0.07
RNA-seq results: MAT1A expression (gene MAT1A): 0.14
RNA-seq results: MBL2 expression (gene MBL2): −0.25
